Target: T1, FDH1 (Trichoderma reesei, UniProt G0RGU7)
T1 construct: gene TRIREDRAFT_60517; full-length re-annotated 302-aa protein (database gene model may differ; S1 Data); codon-optimized; pET-32a(+), E. coli BL21(DE3); N-terminal His6 tag
Assay: NADH formation at […] nm, initial rates, Hill equation fit
Format: biochemical
Settings: NAD+ co-substrate (0.5 mM in standard assay), 50 mM Tris-HCl pH 9.0, 30 °C

T1 sequence (G0RGU7 entry or part of it): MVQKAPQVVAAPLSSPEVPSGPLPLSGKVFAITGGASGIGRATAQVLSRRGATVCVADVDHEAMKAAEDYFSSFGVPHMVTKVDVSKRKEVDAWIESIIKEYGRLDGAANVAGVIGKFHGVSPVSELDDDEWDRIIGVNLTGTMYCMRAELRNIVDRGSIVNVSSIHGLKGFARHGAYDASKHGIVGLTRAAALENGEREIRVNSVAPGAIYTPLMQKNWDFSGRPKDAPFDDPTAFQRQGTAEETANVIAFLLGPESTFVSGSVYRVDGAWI

Km: 546 µM
SMILES: C[C@@H]1OC(O)[C@@H](O)[C@H](O)[C@@H]1O (stereo partly drawn) [L-fucose, 6-deoxy-L-galactose]
